Numbered stars: 1 amine (or outer) side, 2 acyl side, 3 side chain; on linkers, the order of the positions; unused ones are H or OH. Bridge positions count the residues as written; N and C are the ends. Square brackets hold non-standard residues; d marks the D form. Side chains are listed from the residue outwards. Peptide text beside a SMILES is read from it. * marks the point of attachment. C18 diacid = O=C(O)CCCCCCCCCCCCCCCCC(=O)*; γGlu = O=C(O)[C@H](CCC(=O)[*:2])N[*:1]; AEEA = NCCOCCOCC(=O)O; Aib = CC(C)(N)C(=O)O
System: serum albumin from humans (HSA)
Type: binding, man (Homo sapiens)
Protocol: FIG. 14: Competitive ligand binding assay using radio labelled salmon calcitonin (^125I-sCT) as tracer and conducted 2% serum albumin from two different species, rat (Rattus norvegicus) and man (Homo sapiens). As a tracer 0.25 nM ^125I-sCT was used. A) Competitive binding assay conducted in 2% RSA. B) Competitive binding assay conducted in 2% HSA. Data as +/−SEM. To investigate whether the improved efficacy in the acute setting of acylation 4 and 5 could be translated to man, a competitive ligand binding assay was conducted to explore acylation binding to serum albumin in rodent and man.

CC(=O)N[C@H]1CSSC[C@@H](C(=O)NC(C)(C)C(=O)N[C@@H](CC(C)C)C(=O)NCC(=O)N[C@@H](CCCCNC(=O)COCCOCCNC(=O)COCCOCCNC(=O)CC[C@H](NC(=O)CCCCCCCCCCCCCCCCC(=O)O)C(=O)O)C(=O)N[C@@H](CC(C)C)C(=O)N[C@@H](CO)C(=O)N[C@@H](CCC(N)=O)C(=O)N[C@@H](CC(=O)O)C(=O)N[C@@H](CC(C)C)C(=O)N[C@@H](Cc2c[nH]cn2)C(=O)N[C@@H](CCCNC(=N)N)C(=O)N[C@@H](CC(C)C)C(=O)N[C@@H](CCC(N)=O)C(=O)N[C@H](C(=O)N[C@@H](Cc2ccc(O)cc2)C(=O)N2CCC[C@H]2C(=O)N[C@@H](CCCCN)C(=O)N[C@H](C(=O)N[C@@H](CC(=O)O)C(=O)N[C@H](C(=O)NCC(=O)N[C@@H](C)C(=O)N[C@@H](CC(N)=O)C(=O)N[C@@H](C)C(=O)N2CCC[C@H]2C(N)=O)C(C)C)[C@@H](C)O)[C@@H](C)O)NC(=O)[C@H]([C@@H](C)O)NC(=O)[C@H](CO)NC(=O)[C@H](CC(C)C)NC(=O)[C@H](CC(N)=O)NC(=O)[C@H](CO)NC1=O [KBP-356] (Ac-CSNLSTC[Aib]LGK([AEEA-AEEA-γGlu-C18 diacid])LSQDLHRLQTYPKTDVGANAP-NH2; disulfide 1-7 (inferred))
EC50 in competitive binding (in words): no differences in EC50

Reference: patent US20220380432A1, “Acylated Calcitonin Mimetics” (KeyBioscience AG, priority 2018, published 2022)
